According to paper PMC10385824, “Antiproliferative and Tubulin-Destabilising Effects of 3-(Prop-1-en-2-yl)azetidin-2-Ones and Related Compounds in MCF-7 and MDA-MB-231 Breast Cancer Cells” (Pharmaceuticals, 2023):

System: MCF-7 human breast cancer cells
Assay: cells
Settings: MCF7

| Compound | IC50 [µM] |
| --- | --- |
| C=C(C)C1C(=O)N(c2cc(OC)c(OC)c(OC)c2)C1c1ccc(OC)c([N+](=O)[O-])c1 (stereo not drawn) [9r, 4-(4-Methoxy-3-nitrophenyl)-1-(3,4,5-trimethoxyphenyl)-3-(prop-1-en-2-yl)azetidin-2-one] | 0.01 to 0.033 |

Same assay, conditions: MCF7, 72 h, MCF-7, Figure 2, 72 h

| Compound | IC50 [µM] |
| --- | --- |
| C=C(C)C1C(=O)N(c2cc(OC)c(OC)c(OC)c2)C1c1cccc2ccccc12 (stereo not drawn) [9m, 4-Naphthalen-1-yl-1-(3,4,5-trimethoxyphenyl)-3-(prop-1-en-2-yl)azetidin-2-one] | 8.07 |
| C=C(C)C1C(=O)N(c2cc(OC)c(OC)c(OC)c2)C1c1ccc(OC)c(NC(=O)C(N)Cc2ccccc2)c1 (stereo not drawn) [13a, 2-Amino-N-(2-methoxy-5-(1-(3,4,5-trimethoxyphenyl)-4-oxo-3-(prop-1-en-2-yl)azetidin-2-yl)phenyl)-3-phenylpropanamide] | 4.92 |

Same assay, conditions: MCF7, 72 h, read-out: Antiproliferative Activity IC50, MCF-7, 72 h, eight concentrations 1–50 μM, mean ± SEM, Table 2

| Compound | IC50 [µM] |
| --- | --- |
| C=C(C)C1C(=O)N(c2cc(OC)c(OC)c(OC)c2)C1c1ccc(F)cc1 (stereo not drawn) [9d, 4-(4-Fluorophenyl)-1-(3,4,5-trimethoxyphenyl)-3-(prop-1-en-2-yl)azetidin-2-one] | 0.691 ± 0.1 |
| C=C(C)C1C(=O)N(c2cc(OC)c(OC)c(OC)c2)C1c1cccc2ccccc12 (stereo not drawn) [9m, 4-Naphthalen-1-yl-1-(3,4,5-trimethoxyphenyl)-3-(prop-1-en-2-yl)azetidin-2-one] | 44.1 ± 2.57 |

Same assay, conditions: MCF7, 72 h, read-out: Antiproliferative Activity IC50, MCF-7, 72 h, eight concentrations (0.001–50 mM [sic]), mean ± SEM, Table 5

| Compound | IC50 [µM] |
| --- | --- |
| CCOC(=O)CC1C(=O)N(c2cc(OC)c(OC)c(OC)c2)C1c1ccc(OC)c(O)c1 (stereo not drawn) [17g, Ethyl-2-(2-(3-hydroxy-4-methoxyphenyl)-1-(3,4,5-trimethoxyphenyl)-4-oxoazetidin-3-yl)acetate] | 0.075 ± 0.01 |
| COc1ccc(C2C(CC=Cc3ccc(C(F)(F)F)cc3)C(=O)N2c2cc(OC)c(OC)c(OC)c2)cc1 (stereo not drawn) [17d, 3-(4-(Trifluoromethyl)cinnamyl)-4-(4-methoxyphenyl)-1-(3,4,5-trimethoxyphenyl) azetidin-2-one] | 49.5 ± 5.23 |
| O=C1C(CC=Cc2ccccc2)C(c2ccccc2)N1c1ccccc1 (stereo not drawn) [17c, 3-Cinnamyl-1,4-diphenylazetidin-2-one] | 75.4 ± 8.12 |
| COc1ccc(C2C(CC=Cc3ccc(C(F)(F)F)cc3)C(=O)N2c2ccccc2)cc1 (stereo not drawn) [17e, 3-(4-(Trifluoromethyl)cinnamyl)-4-(4-methoxyphenyl)-1-phenylazetidin-2-one] | 4.76 ± 0.56 |
| COc1ccc(C2C(CC=Cc3ccccc3)C(=O)N2c2cc(OC)c(OC)c(OC)c2)cc1O (stereo not drawn) [17b, 3-Cinnamyl-4-(3-hydroxy-4-methoxyphenyl)-1-(3,4,5-trimethoxyphenyl)azetidin-2-one] | 1.09 ± 0.08 |
| COc1ccc(C2C(C=Cc3ccc(C(F)(F)F)cc3)C(=O)N2c2cc(OC)c(OC)c(OC)c2)cc1 (stereo not drawn) [compound 19, 3-(4-(Trifluoromethyl)styryl)-1-(3,4,5-trimethoxyphenyl)-4-(4-methoxyphenyl)azetidin-2-one] | 7.71 ± 0.78 |
| COc1cc(N2C(=O)C(CC3CO3)C2c2ccccc2)cc(OC)c1OC (stereo not drawn) [compound 20, 1-(3,4,5-Trimethoxyphenyl)-3-((oxiran-2-yl)methyl)-4-phenylazetidin-2-one] | 51.5 ± 5.46 |

Same assay, conditions: MCF7, read-out: Antiproliferative Activity IC50

| Compound | IC50 [µM] |
| --- | --- |
| CCCC1C(=O)N(c2cc(OC)c(OC)c(OC)c2)C1c1ccc(OC)c(OP(=O)(O)O)c1 (stereo not drawn) [15d, 2-Methoxy-5-(1-(3,4,5-trimethoxyphenyl)-4-oxo-3-propylazetidin-2-yl)phenyl dihydrogen phosphate] | 0.032 ± 0.005 |
| C=CCC1C(=O)N(c2cc(OC)c(OC)c(OC)c2)C1c1ccc(OC)c(OP(=O)(O)O)c1 (stereo not drawn) [15c, 5-(3-Allyl-1-(3,4,5-trimethoxyphenyl)-4-oxoazetidin-2-yl)-2-methoxyphenyl dihydrogen phosphate] | 0.094 ± 0.015 |

Same assay, conditions: MCF7, read-out: Antiproliferative Activity IC50, MCF-7, eight concentrations 0.001–50 μM, mean ± SEM, Table 3

| Compound | IC50 [µM] |
| --- | --- |
| C=CCC1C(=O)N(c2cc(OC)c(OC)c(OC)c2)C1c1ccc(N(C)C)cc1 (stereo not drawn) [10e, 3-Allyl-4-(4-dimethylaminophenyl)-1-(3,4,5-trimethoxyphenyl)azetidin-2-one] | 4.46 ± 0.11 |
| C=CCC1C(=O)N(c2cc(OC)c(OC)c(OC)c2)C1c1ccccc1 (stereo not drawn) [10f, 3-Allyl-4-phenyl-1-(3,4,5-trimethoxyphenyl)azetidin-2-one] | 9.61 ± 1.2 |
| C=CCC1C(=O)N(c2cc(OC)c(OC)c(OC)c2)C1c1ccc(OC)c(NC(=O)C(N)Cc2ccccc2)c1 (stereo not drawn) [13b, N-(5-(3-Allyl-1-(3,4,5-trimethoxyphenyl)-4-oxoazetidin-2-yl)-2-methoxyphenyl)-2-amino-3-phenylpropanamide] | 10.7 ± 1.94 |
| C=CCC1C(=O)N(c2cc(OC)c(OC)c(OC)c2)C1c1ccc(OC)c(NC(=O)C(N)C(C)C)c1 (stereo not drawn) [13c, N-(5-(3-Allyl-1-(3,4,5-trimethoxyphenyl)-4-oxoazetidin-2-yl)-2-methoxyphenyl)-2-amino-3-methylbutanamide] | 13 ± 1.25 |
| C=CCC1C(=O)N(c2cc(OC)c(OC)c(OC)c2)C1c1ccc([N+](=O)[O-])cc1 (stereo not drawn) [10a, 3-Allyl-4-(4-nitrophenyl)-1-(3,4,5-trimethoxyphenyl)azetidin-2-one] | 4.13 ± 0.62 |
| C=CCC1C(=O)N(c2cc(OC)c(OC)c(OC)c2)C1c1ccc(Br)cc1 (stereo not drawn) [10c, 3-Allyl-4-(4-bromophenyl)-1-(3,4,5-trimethoxyphenyl)azetidin-2-one] | 0.944 ± 0.1 |
| C=CCC1C(=O)N(c2cc(OC)c(OC)c(OC)c2)C1c1ccc(OCC)cc1 (stereo not drawn) [10i, 3-Allyl-4-(4-ethoxyphenyl)-1-(3,4,5-trimethoxyphenyl)azetidin-2-one] | 0.091 ± 0.01 |
| C=CCC1C(=O)N(c2cc(OC)c(OC)c(OC)c2)C1c1ccc(OCCCC)cc1 (stereo not drawn) [10j, 3-Allyl-4-(4-butoxyphenyl)-1-(3,4,5-trimethoxyphenyl)azetidin-2-one] | 17.4 ± 1.23 |
| C=CCC1C(=O)N(c2ccccc2)C1c1ccc(OC)cc1 (stereo not drawn) [10s, 3-Allyl-4-(4-Methoxyphenyl)-1-phenylazetidin-2-one] | 84.5 ± 8.1 |
| C=CCC1C(=O)N(c2cc(OC)c(OC)c(OC)c2)C1c1ccc(Cl)cc1 (stereo not drawn) [10b, 3-Allyl-4-(4-chlorophenyl)-1-(3,4,5-trimethoxyphenyl)azetidin-2-one] | 0.621 ± 0.095 |
| C=CCC1C(=O)N(c2cc(OC)c(OC)c(OC)c2)C1c1ccc(Oc2ccccc2)cc1 (stereo not drawn) [10k, 3-Allyl-4-(4-phenoxyphenyl)-1-(3,4,5-trimethoxyphenyl)azetidin-2-one] | 7.49 ± 0.6 |
| C=CCC1C(=O)N(c2cc(OC)c(OC)c(OC)c2)C1c1ccc2ccccc2c1 (stereo not drawn) [10n, 3-Allyl-4-naphthalen-2-yl-1-(3,4,5-trimethoxyphenyl)azetidin-2-one] | 0.318 ± 0.03 |

Same assay, conditions: MCF7, read-out: Antiproliferative Activity IC50, MCF-7, eight concentrations 0.001–50 μM, mean ± SEM, Table 4

| Compound | IC50 [µM] |
| --- | --- |
| C=C/C=C/C1C(=O)N(c2cc(OC)c(OC)c(OC)c2)C1c1ccc([N+](=O)[O-])cc1 (stereo not drawn) [11a, (E)-3-(Buta-1,3-dien-1-yl)-4-(4-nitrophenyl)-1-(3,4,5-trimethoxyphenyl)azetidin-2-one] | 0.784 ± 0.13 |
| C=C/C=C/C1C(=O)N(c2cc(OC)c(OC)c(OC)c2)C1c1ccc(OCc2ccccc2)cc1 (stereo not drawn) [11l, (E)-3-(Buta-1,3-dien-1-yl)-4-(4-benzyloxyphenyl)-1-(3,4,5-trimethoxyphenyl)azetidin-2-one] | 145 ± 11.7 |
| C=C/C=C/C1C(=O)N(c2cc(OC)c(OC)c(OC)c2)C1c1ccc(OCCCC)cc1 (stereo not drawn) [11j, (E)-3-(Buta-1,3-dien-1-yl)-4-(4-butoxyphenyl)-1-(3,4,5-trimethoxyphenyl)-azetidin-2-one] | 182 ± 19.4 |
| C=C/C=C/C1C(=O)N(c2cc(OC)c(OC)c(OC)c2)C1c1ccc(Oc2ccccc2)cc1 (stereo not drawn) [11k, (E)-3-(Buta-1,3-dien-1-yl)-4-(4-phenoxyphenyl)-1-(3,4,5-trimethoxyphenyl)azetidin-2-one] | 37.9 ± 3.8 |
| C=C/C=C/C1C(=O)N(c2cc(OC)c(OC)c(OC)c2)C1c1ccc2ccccc2c1 (stereo not drawn) [11n, (E)-3-(Buta-1,3-dien-1-yl)-4-(naphthalen-2-yl)-1-(3,4,5-trimethoxyphenyl)azetidin-2-one] | 0.296 ± 0.05 |
| C=C/C=C/C1C(=O)N(c2cc(OC)c(OC)c(OC)c2)C1c1ccc(N(C)C)cc1 (stereo not drawn) [11e, (E)-3-(Buta-1,3-dien-1-yl)-4-(4-dimethylaminophenyl)-1-(3,4,5-trimethoxyphenyl)azetidin-2-one] | 1.93 ± 0.34 |
| C=CC=CC1C(=O)N(c2cc(OC)c(OC)c(OC)c2)C1c1ccc(OC)c(NC(=O)CN)c1 (stereo not drawn) [13e, 2-Amino-N-(5-(3-(buta-1,3-dienyl)-1-(3,4,5-trimethoxyphenyl)-4-oxoazetidin-2-yl)-2-methoxyphenyl)acetamide] | 9.36 ± 1.21 |
| C=C/C=C/C1C(=O)N(c2cc(OC)c(OC)c(OC)c2)C1c1ccc(OC)c(NC(=O)C(N)C(C)C)c1 (stereo not drawn) [13d, 2-Amino-N-(5-(3-((E)-buta-1,3-dienyl)-1-(3,4,5-trimethoxyphenyl)-4-oxoazetidin-2-yl)-2-methoxyphenyl)-3-methylbutanamide] | 24.2 ± 3.91 |
| C=C/C=C/C1C(=O)N(c2ccccc2)C1c1ccc(OC)cc1 (stereo not drawn) [11s, (E)-3-(Buta-1,3-dien-1-yl)-4-(4-methoxyphenyl)-1-phenylazetidin-2-one] | 15.2 ± 1.41 |

System: not given
Assay: not given
Settings: not given

| Compound | melting point [°C] |
| --- | --- |
| COC(=O)C1=C(C(=O)OC)C(C2C(=O)N(c3cc(OC)c(OC)c(OC)c3)C2c2cccc3ccccc23)CC=C1 (single isomer, unassigned) [22a, Dimethyl-6-(1-(3,4,5-trimethoxyphenyl)-2-(naphthalen-1-yl)-4-oxoazetidin-3-yl)cyclohexa-1,3-diene-1,2-dicarboxylate] | 120 to 122 |
| C=C/C=C/C1C(=O)N(c2cc(OC)c(OC)c(OC)c2)C1c1ccc([N+](=O)[O-])cc1 (stereo not drawn) [11a, (E)-3-(Buta-1,3-dien-1-yl)-4-(4-nitrophenyl)-1-(3,4,5-trimethoxyphenyl)azetidin-2-one] | 133 to 134 |
| C=C(C)C1C(=O)N(c2cc(OC)c(OC)c(OC)c2)C1c1ccc(F)cc1 (stereo not drawn) [9d, 4-(4-Fluorophenyl)-1-(3,4,5-trimethoxyphenyl)-3-(prop-1-en-2-yl)azetidin-2-one] | 99 to 100 |
| C=C(C)C1C(=O)N(c2ccccc2)C1c1ccc(OC)cc1 (stereo not drawn) [9x, 4-(4-Methoxyphenyl)-1-phenyl-3-(prop-1-en-2-yl)azetidin-2-one] | 104 to 105 |
| C=C(C)C1C(=O)N(c2cc(OC)c(OC)c(OC)c2)C1c1ccc(OCCCC)cc1 (stereo not drawn) [9j, 4-(4-Butoxyphenyl)-1-(3,4,5-trimethoxyphenyl)-3-(prop-1-en-2-yl)azetidine-2-one] | 55 to 57 |
| C=C/C=C/C1C(=O)N(c2cc(OC)c(OC)c(OC)c2)C1c1ccc(Oc2ccccc2)cc1 (stereo not drawn) [11k, (E)-3-(Buta-1,3-dien-1-yl)-4-(4-phenoxyphenyl)-1-(3,4,5-trimethoxyphenyl)azetidin-2-one] | 119 to 120 |
| C=C(C)C1C(=O)N(c2cc(OC)c(OC)c(OC)c2)C1c1ccc(Oc2ccccc2)cc1 (stereo not drawn) [9k, 4-(4-Phenoxyphenyl)-1-(3,4,5-trimethoxyphenyl)-3-(prop-1-en-2-yl)azetidin-2-one] | 126 to 127 |
